According to patent US5688789A, “PCP receptor ligands and the use thereof” (State of Oregon, acting by and through the Oregon State …, priority 1995, dated 1997):

Columns and labels:
PCP receptor [1] = assay: PCP receptor affinity of IDDC analogs vs. [3H]MK-801 in rat brain membrane (Example 10, Table 2); settings: read-out: PCP Receptor Affinity IC50 in Rat Brain Membrane vs. [3H]MK-801, MEAN
[2] = test system: NMDA receptor-ion channel complex; assay: Whole-cell patch clamp: block of NMDA-induced currents on cultured rat hippocampal neurons (Example 6); format: cell-based; settings: for inward current on serial applications with NMDA: 10 uM compound with NMDA; for recovery from inhibition of NMDA current: after 10 uM compound
Method: In the electrophysiological studies the compounds are evaluated with respect to their ability to block the ion channel of the NMDA receptor channel complex and thereby inhibit Ca^2+ and Na^+ ion flow into the nerve cell. Initially, the ion channels are opened by activating the NMDA receptor. Ion flow is determined by measuring the passage of electrical current, i.e., a use-dependent decrease in electrical current indicates blocking of the ion channel due to binding of a ligand at a site within the channel.
Hippocampal neurons were obtained from the CA1 region of the hippocampus from 1-3 day-old-newborn rats (Long-Evans). Small blocks of tissue ([…]1mm^3) were incubated in papain (20 units ml^-1; Worthington-Cooper) for 30 minutes. The tissue was dissociated into a single cell suspension by trituration with a fire-polished Pasteur pipette in complete growth medium (Earle's MEM, 20 mM glucose, 50 units/ml penicillin/streptomycin, 5% heat-inactivated fetal calf serum, Serum Extender from Collaborative Research) containing 2.5 mg/ml bovine serum albumin and 2.5 mg/ml trypsin inhibitor (Sigma). The cells were plated onto glass coverslips coated with collagen/poly-D-lysine. Cultures were fed every 3 days by replacing haft the volume of medium. Arabinosylcytosine (5×10^-6 M) was added to the cultures for 1 or 2 days during the first week after plating to suppress the proliferation of non-neuronal cells.
All electrophysiology experiments were performed with the whole-cell mode of patch clamp recording [Hamill, O. D., Marty, A., Neher, E., Sakman, B., and Sigworth, F. J., Pflugers Arch. 391:85-100 (1981)] from neurons grown for 1-3 weeks in culture. Agonists and agonist/antagonist combinations were applied by a U-tube mol (Fenwick et al, J. Physiol. 331:577-597 (1982)) to neurons in whole-cell experiments. The external solution contained (in mM) NaCl 140, KCl 3.5, CaCl2 1, glucose 5, picrotoxinin 0.02, tetrodotoxin (TTX) 5×10^-4, and N-2-hydroxyethyl-piperazine-N'-2-ethanesulfonic acid (HEPES) 10. The pH of this solution was adjusted to 7.4 with NaOH. The internal (patch electrode) solution contained (mM) Cs-methanesulfonate 120, CsCl 10, ethyleneglycol-bis-(β-aminoethylether)-N,N,N',N'-tetraacetic acid (EGTA) 10, HEPES 10 (pH adjusted to 7.0 with CsOH). Membrane current was filtered at 4000 Hz (-3dB; 8-pole Bessel) and recorded on magnetic tape for later analysis. Experiments were performed at room temperature (20°-25° C.). [Sources of chemicals: N-methyl-D-aspartate, Cambridge Research Biochemicals; pirotoxinin, Sigma Chemical Company; salts for recording solutions, Aldrich (Gold Label) or Alfa (Puratronic). [^3 H]Kainate and [3H]CPP and [^3 H]AMPA were purchased from Dupont/NEN (Boston, Mass.)].
Repetitive applications (every 30 s) to the same cell produced currents which varied less than 5% over a period of at least 30 minutes.

PCP receptor [3] = assay: PCP receptor binding against 3H-MK-801 (Example 5, Table 1); settings: for IC50: vs. 3H-MK-801, ± sem (n)
Method: The PCP receptor binding properties of various compounds of the invention against ^3 H-5-methyl-10,11-dihydro-5H-dibenzo[a,d]cycloheptene-5,10-imine (^3 H-MK-801) were determined.

rat hippocampal cells = assay: In vitro neurotoxicity assay: protection against glutamate, Trypan Blue survival count (Example 7); format: cell-based; settings: 10 uM, glutamate 0-1000 uM, 1 uM glycine
Method: In the cytotoxicity studies, cultured mammalian neurons expressing EAA receptors are exposed in vitro to glutamate and the particular compound under investigation. The survival percentage of cells indicates the ability of the compound to protect against glutamate-induced neuronal death.
Dissociated rat hippocampal cultures were prepared using a modification of the method of Huettner and Baughman [Huettner, J. E. and Baugham, R. W., J. Neurosci. 6:3044-3060 (1986)]. The cortices were removed from 1-3 day post-natal rats (Sprague-Dawley) that had been anesthetized with chloral hydrate, and the hippocampi were dissected out and placed in Cl^- free dissociation medium supplemented with 1 mM kynurenic acid and 10 mM MgSO4 (Choi, D. W., J. Neurosci. 7:369-379 (1987)). The hippocampi were washed in the dissociation medium, then incubated for 2×20 minutes at 37° C. in dissociation medium containing 10 units/ml of Papain (Worthington). After the enzyme treatment, the tissue was incubated for three 5-minute periods at 37° C. with 10 mg/ml trypsin inhibitor (Sigma type II-0).
The cells were dissociated by trituration in growth medium and plated as 0.15 ml droplets of cell suspension onto the center of 35 mm Primaria (Falcon) dishes that had been stamped with a labeled 26×26 grid of approximately 0.64 cm^2 total area using a Mecanex BB form (WPI, New Haven, Conn.) and coated with poly-D-lysine and laminin (Collaborative Research). The cell density was between 2.5 and 4.0×10^5 cells per dish. The growth medium was Eagles minimum essential media (MEM, Earle's salts) supplemented with 5% fetal bovine serum (CCL), 5% defined supplemented calf serum (HyClone), 50 mM glucose, 50 units/ml penicillin/streptomycin and MITO+serum extender (Collaborative Research). The cells were maintained at 37° C. in a humidified 4.5% CO2 atmosphere. […]
Before treatment, sister cultures were examined under phase-contrast microscopy to ensure that the cultures were of a similar density. […] The cultures were washed three times and the surviving cells counted in the grid area using phase contrast microscopy. […]

`COc1ccc2c(c1)C1CN(C)C2Cc2ccc(Br)cc21` (racemic) [(±)-3-Br-7-OMe--N--Me-IDDC, 3-Bromo-7-methoxy-N-methyl-5-(iminomethano)-10,11-dihydro-5H-dibenzo[a,d]cycloheptene] was tested, and the IC50 (PCP receptor [1]) was 643 nM.
For `CN[C@H](CC(=O)O)C(=O)O` [NMDA, N-methyl-D-aspartate, reference compound], the inward whole-cell current ([2]; 50 uM NMDA + 1 uM glycine, three second applications, -60 mV) was 100-1000 pA.
Work on `COc1ccc2c(c1)C1CNC2Cc2ccc(Cl)cc21` (racemic) [(±)-3-Cl-7-OMe-IDDC, 3-chloro-7-methoxy-5-(iminomethano)-10,11-dihydro-5H-dibenzo[a,d]cycloheptene] yielded an IC50 (PCP receptor [1]) of 113 nM.
In the case of `Ic1ccc2c(c1)C1CNC(C2)c2ccccc21` (racemic) [(±)-3-Iodo-IDDC, 3-iodo-5-(iminomethano)-10,11-dihydro-5H-dibenzo-[a,d]cycloheptene], the IC50 (PCP receptor [1]) is reported as 160 nM.
`Clc1ccc2c(c1)C1CNC(C2)c2ccccc21` (single isomer, unassigned; (-)) [(-)-3-Chloro-IDDC, (-)-3-Chloro-5-(iminomethano)-10,11-dihydro-5H-dibenzo-[a,d]cycloheptene] showed an IC50 (PCP receptor [1]) of 110 nM.
`Brc1ccc2c(c1)C1CNC(C2)c2ccccc21` (racemic) [(±)-3-Br-IDDC, 3-bromo-5-(iminomethano)-10,11-dihydro-5H-dibenzo-[a,d]cycloheptene] showed an IC50 (PCP receptor [1]) of 41 nM.
`COc1ccc2c(c1)C1CNC2Cc2ccc(Br)cc21` (racemic) [(±)-3-Br-7-OMe-IDDC, 3-bromo-7-methoxy-5-(iminomethano)-10,11-dihydro-5H-dibenzo[a,d]cycloheptene] was tested, and the IC50 (PCP receptor [1]) was 114 nM.
Work on `COc1ccc2c(c1)C1CNC2Cc2ccccc21` (racemic) [(±)-7-OMe-IDDC, 7-Methoxy-5-(iminomethano)-10,11-dihydro-5H-dibenzo-[a,d]cycloheptene] yielded an IC50 (PCP receptor [1]) of 332 nM.
Work on `Clc1ccc2c(c1)C1CNC(C2)c2ccccc21` (single isomer, unassigned; (+)) [(+)-3-Chloro-IDDC, (+) 3-Chloro-5-(iminomethano)-10,11-dihydro-5H-dibenzo-[a,d]cycloheptene] yielded an IC50 (PCP receptor [1]) of 14 nM.
With `Clc1ccc2c(c1)C1CNC2Cc2ccccc21` (racemic) [(±)-7-Cl-IDDC, 7-Chloro-5-(iminomethano)-10,11-dihydro-5H-dibenzo-[a,d]cycloheptene] the IC50 (PCP receptor [1]) was 690 nM.
Work on `Fc1ccc2c(c1)C1CNC(C2)c2ccccc21` (single isomer, unassigned; (+)) [(+)-3-Fluoro-IDDC, (+)-3-fluoro-5-(iminomethano)-10,11-dihydro-5H-dibenzo-[a,d]cycloheptene] yielded an IC50 (PCP receptor [1]) of 18 nM.
In the case of `CN1CC2c3cc(Br)ccc3CC1c1ccccc12` (racemic) [(±)-3-Br--N--Me-IDDC, 3-bromo-N-methyl-5-(iminomethano)-10,11-dihydro-5H-dibenzo[a,d]cycloheptene], the IC50 (PCP receptor [1]) is reported as 1040 nM.
Work on `Clc1ccc2c(c1)C1CNC(C2)c2ccccc21` (racemic) [(±)-3-Cl-IDDC] yielded an IC50 (PCP receptor [1]) of 64.2 nM.
Work on `COc1ccc2c(c1)C1CNC(C2)c2ccccc21` (racemic) [(±)-3-OMe-IDDC, 3-methoxy-5-(iminomethano)-10,11-dihydro-5H-dibenzo-[a,d]cycloheptane] yielded an IC50 (PCP receptor [1]) of 168 nM.
`CC12CNC(Cc3ccccc31)c1ccccc12` (racemic) [(±)-5-Me-IDDC, 5-methyl-10,5-(iminomethano)-10,11-dihydro-5H-dibenzo[a,d]cycloheptene] showed an IC50 (PCP receptor [3]) of 125 nM and an IC50 (PCP receptor [1]) of 119 nM.
`CN1C[C@H]2c3ccccc3C[C@@H]1c1ccccc12` [(+)-N--Me-IDDC, N-methyl-10,5-(iminomethano)-10,11-dihydro-5H-dibenzo[a,d]cycloheptene] was tested, and the “inward current on serial applications with NMDA” value [2] was “Serial applications evoked progressively smaller currents”, the “rate of recovery from blockade compared with MK-801” value ([2]; 10 uM, relative to MK-801) was “somewhat more rapid than the rate of recovery of responses following MK-801” and the “inhibition of NMDA current” value ([2]; 10 uM, 50 uM NMDA + 1 uM glycine, -60 mV) was “inhibited the NMDA current in a use-dependent and voltage-dependent manner”. The “recovery from inhibition of NMDA current” value [2] was “reversed only with prolonged or repeated application of NMDA”, the “affinity for the PCP receptor compared with MK-801” value (PCP receptor [3]; relative to MK-801) was “lower affinity than MK-801 for the PCP receptor” and the IC50 (PCP receptor [3]) was 800 ± 9 nM. For the same molecule, the IC50 (PCP receptor [1]) was 65.4 nM.
`Fc1ccc2c(c1)C1CNC(C2)c2ccccc21` (racemic) [(±)-3-F-IDDC] was tested, and the IC50 (PCP receptor [1]) was 29.4 nM.
With `CC12NC(Cc3ccccc31)c1ccccc12` (single isomer, unassigned) [MK-801, 5-methyl-10,11-dihydro-5H-dibenzo[a,d]cycloheptene-5,10-imine, reference compound] the “inward current on serial applications with NMDA” value [2] was “the inward current became progressively smaller with serial applications” and the “recovery from inhibition of NMDA current” value [2] was “required repeated applications of NMDA alone and was speeded by holding the membrane potential at positive voltages”.
For `CN1CC2c3ccccc3CC1c1ccccc12` (single isomer, unassigned) [N-methyl IDDC, N-methyl-10,5-(iminomethano)-10,11-dihydro-5H-dibenzo[a,d]cycloheptene], the “cell survival compared to control” value (rat hippocampal cells) was “enhanced cell survival when compared to control values”.
`Nc1ccc2c(c1)C1CNC(C2)c2ccccc21` (racemic) [(±)-3-NH2-IDDC, 3-amino-5-(iminomethano)-10,11-dihydro-5H-dibenzo[a,d]cycloheptene] showed an IC50 (PCP receptor [1]) of 486 nM.
